Consider one molecule from patent publication US20220220481A1, “LIPID OLIGONUCLEOTIDE ANTISENSE AGAINST ANTIBIOTIC RESISTANCE” (priority 2019, published 2022).

Experiment [1] concerns E. coli TcK12 (resistant, blaCTX-M-15 plasmid). As to the kind of experiment: Ceftriaxone MIC with or without ASOs/LASOs, liquid micro-dilution, resistant laboratory strain. It counts as cell-based, Escherichia coli. The following applies: TcK12, 24 h. The source says: E. coli strains used included the clinical strain Ec3536 collected from a urine sample of the community patient and provided from the MFP Laboratory collection (Arpin et al. (2009) J. Antimicrob. Chemother. 63:1205-1214). Its conjugative plasmid containing the blaCTX-M-15 gene was transferred by conjugation experiment in a laboratory recipient cell of E. coli K12. Consequently, the transconjugant E. coli TcK12 was resistant to ceftriaxone (CFX) (Arpin et al. (2009) J. Antimicrob. Chemother. 63:1205-1214).
(§1) Determination of minimum inhibitor concentration (MICs) of free CFX with or without ASOs/LASOs was performed on different strains of E. coli, i.e. the CFX sensitive strain K12, and the two resistant strains TcK12 and Ec3536.
(§2) MICs of free CFX with ASOs/LASOs were determined in accordance with the standard method of liquid micro-dilution.
Each bacterial strain that had been frozen at −80° C. was isolated on Mueller-Hinton (MH) agar during 16 h at 37° C. A bacterial suspension in solution of 0.85% NaCl was prepared in order to obtain a turbidity equivalent to standard 0.5 of McFarland range and then diluted 1/100 in MH that correspond to a bacterial inoculum of ca. 10^6 CFU/mL. […]
(§3) Preliminary data allowed to optimize the analysis of microplates using turbidimeter (Apollo LB 911 (Berthold)) at the wavelength of 620 nm, read in triplicate at 0 h, and 24 h. […]
(Broth dilution looks for growth in wells or tubes with falling amounts of substance.)

For experiment [2], the system named is E. coli K12 (CFX sensitive strain). The experiment can be described thus: Ceftriaxone MIC with or without ASOs/LASOs, liquid micro-dilution, sensitive strain. It counts as cell-based, Escherichia coli. The following applies: K12, 24 h, SD 0, n=3. The method, then: as §1, §2
Each bacterial strain that had been frozen at −80° C. was isolated on Mueller-Hinton (MH) agar during 16 h at 37° C. A bacterial suspension in solution of 0.85% NaCl was prepared in order to obtain a turbidity equivalent to standard 0.5 of McFarland range and then diluted 1/100 in MH that correspond to a bacterial inoculum of ca. 10^6 CFU/mL. The bacterial suspension was afterwards mixed with ASOs, LASOs at 2-fold desired concentration in MH. Then 50 μL of bacterial suspension mixed with 50 μl MH, containing oligonucleotides or CFX, was dispensed into the microplate wells immediately. The final volume per well was 100 μL. The concentration of oligonucleotides in well was fixed at 5 μM except for dose-effect tests. The concentration range of LASOs from 0.05 μM to 50 μM was tested. The range of CFX concentration was adjusted to surround the MIC of each bacterial strain. […]
as §3

As to `CO/N=C(\C(=O)N[C@@H]1C(=O)N2C(C(=O)O)=C(CSc3nc(=O)c(=O)[nH]n3C)CS[C@H]12)c1csc(N)n1` [CFX, ceftriaxone], in experiment [1], the “CFX MIC without oligonucleotide (means of MICs)” value was 1365 µg/mL. Besides, the “CFX MIC in absence of antisense sequences” value in experiment [2] stood at 0.06 µg/mL.
